Measurements published in US20260273072A1, “NOVEL PLK1 DEGRADATION INDUCING COMPOUND” (UPPTHERA, INC., priority 2023, published 2026).
Where two headings read alike, the source gives them in different places.

Experiments:
Type in all cases: cell-based
MRC-5 cell line = experiment: Cell viability assay for MRC-5 cell line (EZ-Cytox); details: for IC50: Homo sapiens, MRC5, 120 h
Description: 4. Cell Viability Assay for MRC-5 Cell Line
(1) Culture of MRC-5 Cell Line
The MRC-5 cell line was purchased from KCLB. Passage of cultured cells was maintained within P15.
(2) Treatment of Compounds of the Present Invention
Then, it was cultured in 37° C. CO2 incubator (Thermo Fisher Scientific) for 5 days.
(3) Cytotoxicity Experiment
CO2 incubator for 4 hours.

NCI-H69 cell line = experiment: Cell viability assay for NCI-H69 cell line (EZ-Cytox); details: Homo sapiens, NCI-H69, 120 h; H69 cells, 5 days, 3000 nM to 0.46 nM
Description: (§1) 3. Cell Viability Assay for NCI-H69, NCI-H526 Cell Lines
(§2) (1) Culture of NCI-H69, NCI-H526 Cell Lines
(§3) The NCI-H69 (hereafter H69) and NCI-H526 (hereafter H526) cell lines were purchased from KCLB.
(§4) (2) Treatment of Compounds of the Present Invention and Method of Cell Viability Assay
(§5) After treating the compound to each well to make the total volume of 200 μl, it was cultured in a CO2 incubator (Thermo Fisher Scientific) for 5 days. […] The absorbance of the completely cultured sample was measured by setting the wavelength of a plate reader (BMG Labtech) to […], and was measured after shaking for 3 minutes in a plate reader before measurement.
(§6) The results of cell viability for H526 and H69 cell line are shown in Table 3 and Table 4, respectively.
(§7) In Table 3 and Table 4, Activity represents IC50 value of each Exemplary Compound treatment group to H526 and H69 cell line, respectively (A: <30 nM, B: <50 nM, C: <100 nM, D: <200 nM, E: <400 nM).

PLK1 = target: T1, PLK1 (Homo sapiens, UniProt P53350); experiment: Luciferase assay for PLK1 in HeLa LgBit (Plk1-HiBit KI) cell line; details: 300 nM compound, luminescence after 9 hours
T1 construct: endogenous in cells; host or cells: HeLa LgBit (Plk1-HiBit KI): HeLa stably expressing LgBit, with a CRISPR/Cas9 knock-in of HiBit at the endogenous PLK1 locus
Description: 2. Luciferase Assay for PLK1
(1) Preparation and Culture of HeLa LgBit (Plk1-HiBit KI) Cell Line
A HeLa cell line in which the LgBit vector was transfected and expressed stably was prepared. Then, after constructing gRNA and donor to express the HiBit amino acid sequence behind the C-terminal of the PLK1 gene, which was inherent in the cell, it was inserted into the cell together with a vector capable of expressing CRISPR/Cas9. Only the cells in which the insertion was completed and knock-in had progressed were selected, sub-cultured and used.
For cell culture, DMEM (Gibco), FBS (Gibco), PS (Gibco), […] cell culture dish (SPL), […] cell culture dish (SPL), 96-well culture plate (SPL), PBS pH 7.4 (Gibco), TrypLE™ Express (Gibco), Cell counter (Thermo Fisher Scientific) and 0.4% Trypan Blue Solution (DYNEBIO) were used.
(2) Treatment of Compounds of the Present Invention and Method of Luciferase Assay
In the case of HeLa LgBit (Plk1-HiBit KI), the compounds were treated after being released after thymidine block, and the process was as follows. Thymidine (Sigma-Aldrich) was completely dissolved in ddH2O and used in the experiment. For thymidine block, the products were treated with 2 mM of thymidine and then incubated for 24 hours. For release and chemical treatment, the medium was suctioned and washed with 1×PBS. TrypLE™ (Gibco) was added and incubated in 37° C. CO2 incubator (Thermo Fisher Scientific) for 5 mins. Cells neutralized by adding complete media were counted through a counter. For each well of a 96-well culture plate (SPL), 3.3×10^4 cells and a total medium volume of 150 μl were seeded and incubated in a CO2 incubator.
Each cell line was incubated in a CO2 incubator for 18 hours, and Endurazine (Promega, Cat. No. N257B) was added to each well to make up 4% of the total volume. After adding compounds of Examples in a 96-well white plate (SPL) to a concentration of 300 nM, the wavelength of the plate reader (BMG Labtech, CLARIOstar Plus) was set to 470-480 nm, and then the luminescence was tracked in real time.
In Table 2, Activity represents the ratio of the luminescence value of each Exemplary Compound treatment group to DMSO treatment group (+++: <0.3, ++: <0.5, +: <0.7).

NCI-H526 cell line = experiment: Cell viability assay for NCI-H526 cell line (EZ-Cytox); details: Homo sapiens, NCI-H526, 120 h; H526 cells, 5 days, 3000 nM to 0.46 nM
Description: as §1, §2, §3, §4, §5, §6, §7

[1] = read-out: Activity: IC50 value, cell viability, MRC-5 cell line (Comparative Compounds)
[2] = MRC-5 normal cell line, 5 days, 10000 nM to 1.52 nM, read-out: Activity: IC50 value, cell viability, MRC-5 cell line (Exemplary Compounds)

T1 sequence (P53350 whole entry): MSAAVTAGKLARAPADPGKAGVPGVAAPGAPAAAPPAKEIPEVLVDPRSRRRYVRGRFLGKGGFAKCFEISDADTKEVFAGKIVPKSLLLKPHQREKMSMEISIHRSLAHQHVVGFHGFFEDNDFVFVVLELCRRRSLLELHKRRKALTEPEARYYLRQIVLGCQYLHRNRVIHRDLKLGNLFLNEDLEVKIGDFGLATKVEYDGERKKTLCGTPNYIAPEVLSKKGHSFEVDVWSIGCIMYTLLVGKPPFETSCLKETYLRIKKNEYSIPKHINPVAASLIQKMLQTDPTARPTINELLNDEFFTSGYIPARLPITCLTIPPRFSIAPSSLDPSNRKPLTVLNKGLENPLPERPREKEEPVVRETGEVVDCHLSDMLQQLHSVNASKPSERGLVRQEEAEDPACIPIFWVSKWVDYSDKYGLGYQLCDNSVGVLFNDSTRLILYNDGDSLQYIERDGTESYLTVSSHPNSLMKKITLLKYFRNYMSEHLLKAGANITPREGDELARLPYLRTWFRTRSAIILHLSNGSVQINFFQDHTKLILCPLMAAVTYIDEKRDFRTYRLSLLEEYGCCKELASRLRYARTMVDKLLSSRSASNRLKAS

Row | SMILES | Activity: ratio of the luminescence value of compound treatment group to DMSO treatment group (PLK1) | Cytotoxicity in normal cell line versus cancer cell lines (in words) (MRC-5 cell line; MRC-5 normal cell line compared with cancer cell lines) | IC50 (MRC-5 cell line; [1]) [nM] | IC50 (NCI-H69 cell line) [nM] | IC50 (NCI-H526 cell line) [nM] | IC50 (MRC-5 cell line; [2]) [nM]
1 | CC[C@@H]1C(=O)N(C)c2cnc(Nc3ccc(C(=O)NCCOCCOCCNc4cccc5c4C(=O)N(C4CCC(=O)NC4=O)C5=O)cc3OC)nc2N1C1CCCC1 (some centres unmarked) [Comparative Compound 1, reference compound] |  | exhibited a high level of cytotoxicity in normal cell line |  |  |  | 
2 | CC[C@@H]1C(=O)N(C)c2cnc(Nc3ccc(C(=O)NC4CCN(C)CC4)cc3OC)nc2N1C1CCCC1 [Comparative Compound 2, BI2536, reference compound] |  |  | 3090 |  |  | 
3 | CC[C@@H]1C(=O)N(C)c2cnc(Nc3ccc(C(=O)N[C@H]4CC[C@H](N5CCN(CC6CC6)CC5)CC4)cc3OC)nc2N1C(C)C [Comparative Compound 3, Volasertib, reference compound] |  |  | 2940 |  |  | 
4 | COc1cc(C(=O)NC2CCN(C)CC2)c(F)cc1Nc1ncc2c(n1)N(C1CCCC1)CC(F)(F)C(=O)N2C [Comparative Compound 4, TAK960, reference compound] |  |  | 9150 |  |  | 
5 | CCN1CC(F)(F)C(=O)N(C)c2cnc(Nc3ccc(C(=O)NC4CC5(CCN(CC6CCN(c7ccc(C8CCC(=O)NC8=O)cc7F)CC6)CC5)C4)cc3OC)nc21 (centres unmarked) [Compound 4, N(7-((1-(4-(2,6-dioxopiperidin-3-yl)-2-fluorophenyl)piperidin-4-yl)methyl)-7-azaspiro[3.5]nonan-2-yl)-4-((9-ethyl-7,7-difluoro-5-methyl-6-oxo-6,7,8,9-tetrahydro-5H-pyrimido[4,5-b][1,4]diazepin-2-yl)amino)-3-methoxybenzamide] |  |  |  | < 30 | < 30 | > 10000
6 | COc1cc(C(=O)NC2CC3(CCN(CCC4CCN(c5ccc(NC6CCC(=O)NC6=O)cc5F)CC4)CC3)C2)ccc1Nc1ncc2c(n1)N(C(C)C)CC(F)(F)C(=O)N2C (centres unmarked) [Compound 31, 4-((7,7-difluoro-9-isopropyl-5-methyl-6-oxo-6,7,8,9-tetrahydro-5H-pyrimido[4,5-b][1,4]diazepin-2-yl)amino)-N-(7-(2-(1-(4-((2,6-dioxopiperidin-3-yl)amino)-2-fluorophenyl)piperidin-4-yl)ethyl)-7-azaspiro[3.5]nonan-2-yl)-3-methoxybenzamide] | +++ (+++: <0.3) |  |  | < 30 | < 30 | 
7 | COc1cc(C(=O)NC2CC3(CCN(CCC4CCN(c5cc(F)c(NC6CCC(=O)NC6=O)cc5F)CC4)CC3)C2)ccc1Nc1ncc2c(n1)N(C(C)C)CC(F)(F)C(=O)N2C (centres unmarked) [Compound 61, 4-((7,7-difluoro-9-isopropyl-5-methyl-6-oxo-6,7,8,9-tetrahydro-5H-pyrimido[4,5-b][1,4]diazepin-2-yl)amino)-N-(7-(2-(1-(4-((2,6-dioxopiperidin-3-yl)amino)-2,5-difluorophenyl)piperidin-4-yl)ethyl)-7-azaspiro[3.5]nonan-2-yl)-3-methoxybenzamide] | ++ (++: <0.5) |  |  | < 30 | < 30 | 
8 | COc1cc(C(=O)NC2CCN(CCC3CCN(c4cc(F)c(NC5CCC(=O)NC5=O)cc4F)CC3)CC2)ccc1Nc1ncc2c(n1)N(C(C)C)CC(F)(F)C(=O)N2C (centres unmarked) [Compound 62, 4-((7,7-difluoro-9-isopropyl-5-methyl-6-oxo-6,7,8,9-tetrahydro-5H-pyrimido[4,5-b][1,4]diazepin-2-yl)amino)-N-(1-(2-(1-(4-((2,6-dioxopiperidin-3-yl)amino)-2,5-difluorophenyl)piperidin-4-yl)ethyl)piperidin-4-yl)-3-methoxybenzamide] | ++ (++: <0.5) |  |  | < 30 | < 30 | 

Continued, in another order:

Row | Activity: ratio of the luminescence value of compound treatment group to DMSO treatment group (PLK1) | SMILES | Cytotoxicity in normal cell line versus cancer cell lines (in words) (MRC-5 cell line; MRC-5 normal cell line compared with cancer cell lines) | IC50 (MRC-5 cell line; [1]) [nM] | IC50 (NCI-H69 cell line) [nM] | IC50 (NCI-H526 cell line) [nM] | IC50 (MRC-5 cell line; [2]) [nM]
9 | ++ (++: <0.5) | COc1cc(C(=O)NN2CCC(N3CC4(CCN(c5cccc(C6CCC(=O)NC6=O)c5)CC4)C3)CC2)ccc1Nc1ncc2c(n1)N(C1CCCC1)CC(F)(F)C(=O)N2C (centres unmarked) [Compound 1, 4-((9-cyclopentyl-7,7-difluoro-5-methyl-6-oxo-6,7,8,9-tetrahydro-5H-pyrimido[4,5-b][1,4]diazepin-2-yl)amino)-N-(4-(7-(3-(2,6-dioxopiperidin-3-yl)phenyl)-2,7-diazaspiro[3.5]nonan-2-yl)piperidin-1-yl)-3-methoxybenzamide] |  |  | < 50 | < 30 | > 10000
10 | ++ (++: <0.5) | COc1cc(C(=O)NN2CCC(C3CCN(c4ccc(C5CCC(=O)NC5=O)cc4F)C3)CC2)ccc1Nc1ncc2c(n1)N(C(C)C)CC(F)(F)C(=O)N2C (centres unmarked) [Compound 2, 4-((7,7-difluoro-9-isopropyl-5-methyl-6-oxo-6,7,8,9-tetrahydro-5H-pyrimido[4,5-b][1,4]diazepin-2-yl)amino)-N-(4-(1-(4-(2,6-dioxopiperidin-3-yl)-2-fluorophenyl)pyrrolidin-3-yl)piperidin-1-yl)-3-methoxybenzamide] |  |  | < 100 | < 50 | > 10000
11 | ++ (++: <0.5) | COc1cc(C(=O)NC2CCN(C3CN(c4ccc(C5CCC(=O)NC5=O)cc4F)C3)CC2)ccc1Nc1ncc2c(n1)N(C(C)C)CC(F)(F)C(=O)N2C (centres unmarked) [Compound 3, 4-((7,7-difluoro-9-isopropyl-5-methyl-6-oxo-6,7,8,9-tetrahydro-5H-pyrimido[4,5-b][1,4]diazepin-2-yl)amino)-N-(1-(1-(4-(2,6-dioxopiperidin-3-yl)-2-fluorophenyl)azetidin-3-yl)piperidin-4-yl)-3-methoxybenzamide] |  |  | < 100 | < 50 | > 10000
12 | ++ (++: <0.5) | COc1cc(C(=O)NC2CC3(CCN(CC4CCN(c5ccc(C6CCC(=O)NC6=O)cc5F)CC4)CC3)C2)ccc1Nc1ncc2c(n1)N(C)CC(F)(F)C(=O)N2C (centres unmarked) [Compound 5, 4-((7,7-difluoro-5,9-dimethyl-6-oxo-6,7,8,9-tetrahydro-5H-pyrimido[4,5-b][1,4]diazepin-2-yl)amino)-N-(7-((1-(4-(2,6-dioxopiperidin-3-yl)-2-fluorophenyl)piperidin-4-yl)methyl)-7-azaspiro[3.5]nonan-2-yl)-3-methoxybenzamide] |  |  | < 100 | < 100 | > 10000
13 | +++ (+++: <0.3) | COc1cc(C(=O)NC2CC3(CCN(CC4CCN(c5cc(F)c(NC6CCC(=O)NC6=O)cc5F)CC4)CC3)C2)ccc1Nc1ncc2c(n1)N(C1CCCC1)CC(F)(F)C(=O)N2C (centres unmarked) [Compound 70, 4-((9-cyclopentyl-7,7-difluoro-5-methyl-6-oxo-6,7,8,9-tetrahydro-5H-pyrimido[4,5-b][1,4]diazepin-2-yl)amino)-N-(7-((1-(4-((2,6-dioxopiperidin-3-yl)amino)-2,5-difluorophenyl)piperidin-4-yl)methyl)-7-azaspiro[3.5]nonan-2-yl)-3-methoxybenzamide] |  |  | < 30 | < 30 | 
